According to US9695155B2, “Herbicidal substituted pyrimidinyloxy benzene compounds” (E. I. DU PONT DE NEMOURS AND COMPANY, priority 2013, dated 2017):

Columns and labels:
[1] = tested on: wild poinsettia; experiment: Test E postemergence; format: in vivo, Euphorbia heterophylla; conditions: Euphorbia heterophylla, post-emergence; Postemergence, 250 g ai/ha, scale 0 to 100; read-out: Plant response rating, Poinsettia, Wild
Outline: (§1)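 Compound in a non-phytotoxic solvent mixture with surfactant was applied preemergence to seeds in silt loam soil, or postemergence to plants 2 to 18 cm tall grown in peat-based potting medium. Plants were kept in a greenhouse for 14 to 21 days, then rated visually against untreated controls on a 0 (no effect) to 100 (complete control) scale.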

[2] = tested on: wild mustard; experiment: Test D preemergence; format: in vivo, Sinapis arvensis; conditions: Brassica, pre-emergence, scale 0-100, read-out: Plant response rating, Mustard, Wild
Outline: (§2)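 Seeds sown in silt loam soil got preemergence sprays; plants in peat/vermiculite potting medium were sprayed postemergence at 2–18 cm (1- to 4-leaf stage). Chemicals were formulated in a non-phytotoxic solvent mixture with surfactant. After 7 to 21 days in a controlled environment, injury was rated visually versus controls, 0 (no effect) to 100 (complete control).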

[3] = tested on: bromegrass, downy; experiment: Test D preemergence; format: in vivo, Bromus tectorum; conditions: Bromus tectorum, pre-emergence, scale 0-100, read-out: Plant response rating, Bromegrass, Downy
Outline: as §2

[4] = tested on: windgrass; experiment: Test D preemergence; format: in vivo, Apera spica-venti; conditions: Apera spica-venti, pre-emergence
Outline: as §2

[5] = tested on: galium; experiment: Test D preemergence; format: in vivo, Galium aparine; conditions: Galium, pre-emergence, scale 0-100, read-out: Plant response rating, Galium
Outline: as §2

[6] = tested on: kochia; experiment: Test D postemergence; format: in vivo, Kochia scoparia; conditions: Bassia scoparia, post-emergence, scale 0 to 100 (0 no effect, 100 complete control), read-out: Plant response rating, Kochia
Outline: as §2

[7] = tested on: lambsquarters; experiment: Test D preemergence; format: in vivo, Chenopodium album; conditions: Chenopodium album, pre-emergence, scale 0-100, read-out: Plant response rating, Lambsquarters
Outline: as §2

[8] = tested on: corn; experiment: Test E postemergence; format: in vivo, Zea mays; conditions: Zea mays, post-emergence
Outline: as §1

[9] = tested on: spring wheat; experiment: Test D postemergence; format: in vivo, Triticum aestivum; conditions: Triticum aestivum, post-emergence, scale 0 to 100 (0 no effect, 100 complete control), read-out: Plant response rating, Wheat, Spring
Outline: as §2

[10] = tested on: winter wheat; experiment: Test D postemergence; format: in vivo, Triticum aestivum; conditions: Triticum aestivum, post-emergence, scale 0 to 100 (0 no effect, 100 complete control), read-out: Plant response rating, Wheat, Winter
Outline: as §2

[11] = tested on: dayflower; experiment: Test E postemergence; format: in vivo, Commelina virginica; conditions: Commelina virginica, post-emergence, read-out: Plant response rating, Dayflower, VA
Outline: as §1

[12] = tested on: canarygrass; experiment: Test D preemergence; format: in vivo, Phalaris minor; conditions: Phalaris minor, pre-emergence, scale 0-100, read-out: Plant response rating, Canarygrass
Outline: as §2

[13] = tested on: speedwell; experiment: Test D postemergence; format: in vivo, Veronica persica; conditions: Veronica persica, post-emergence, scale 0 to 100 (0 no effect, 100 complete control), read-out: Plant response rating, Speedwell
Outline: as §2

[14] = tested on: arrowleaf sida; experiment: Test E postemergence; format: in vivo, Sida rhombifolia; conditions: Sida rhombifolia, post-emergence, read-out: Plant response rating, Arrowleaf Sida
Outline: as §1

[15] = Postemergence, 31 g ai/ha, scale 0 to 100
[16] = Postemergence, 62 g ai/ha, scale 0 to 100
[17] = Postemergence, 125 g ai/ha, scale 0 to 100
[18] = Postemergence, 250 g ai/ha, scale 0 to 100
[19] = postemergence, 16 g ai/ha, scale 0 to 100, 0 no effect, 100 complete control

`N#Cc1cccc(Oc2ncc(Cl)cn2)c1-n1cc(C(F)(F)F)cn1` [Compound 58, 3-[(5-chloro-2-pyrimidinyl)oxy]-2-[4-(trifluoromethyl)-1H-pyrazol-1-yl]benzonitrile] showed a pest or weed control at 250 g/ha [1] of 90%, a pest or weed control at 31 g/ha ([2]; 31 g ai/ha) of 90% and a pest or weed control at 62 g/ha ([2]; 62 g ai/ha) of 100%. It also gave a pest or weed control at 125 g/ha ([2]; 125 g ai/ha) of 100%, a pest or weed control at 250 g/ha ([2]; 250 g ai/ha) of 100% and a pest or weed control at 31 g/ha ([3]; 31 g ai/ha) of 10%. For the same compound, the pest or weed control at 62 g/ha ([3]; 62 g ai/ha) was 15%, the pest or weed control at 125 g/ha ([3]; 125 g ai/ha) was 35% and the pest or weed control at 250 g/ha ([3]; 250 g ai/ha) was 75%. It also gave a pest or weed control at 31 g/ha ([4]; 31 g ai/ha, scale 0 (no effect) to 100 (complete control), read-out: Plant response rating, Windgrass) of 100%, a pest or weed control at 62 g/ha ([4]; 62 g ai/ha, scale 0-100, read-out: Plant response rating, Windgrass) of 100% and a pest or weed control at 125 g/ha ([4]; 125 g ai/ha, scale 0-100, read-out: Plant response rating, Windgrass) of 100%. It also gave a pest or weed control at 250 g/ha ([4]; 250 g ai/ha, scale 0-100, read-out: Plant response rating, Windgrass) of 100%, a pest or weed control at 31 g/ha ([5]; 31 g ai/ha) of 65% and a pest or weed control at 62 g/ha ([5]; 62 g ai/ha) of 100%. For the same compound, the pest or weed control at 125 g/ha ([5]; 125 g ai/ha) was 100%, the pest or weed control at 250 g/ha ([5]; 250 g ai/ha) was 100% and the pest or weed control at 31 g/ha ([6]; 31 g ai/ha) was 95%. It also gave a pest or weed control at 62 g/ha ([6]; 62 g ai/ha) of 95%, a pest or weed control at 125 g/ha ([6]; 125 g ai/ha) of 95% and a pest or weed control at 250 g/ha ([6]; 250 g ai/ha) of 95%. For the same compound, the pest or weed control at 31 g/ha ([7]; 31 g ai/ha) was 100%, the pest or weed control at 62 g/ha ([7]; 62 g ai/ha) was 100% and the pest or weed control at 125 g/ha ([7]; 125 g ai/ha) was 100%. The pest or weed control at 250 g/ha ([7]; 250 g ai/ha) was 100%, the corn plant response (injury) rating, 0-100 at 31 g/ha [8, 15] was 10% and the corn plant response (injury) rating, 0-100 at 62 g/ha [8, 16] was 10%. It also gave a corn plant response (injury) rating, 0-100 at 125 g/ha [8, 17] of 10%, a corn plant response (injury) rating, 0-100 at 250 g/ha [8, 18] of 15% and a corn plant response (injury) rating, 0-100 at 16 g/ha [8, 19] of 5%. The plant injury at 31 g/ha ([9]; 31 g ai/ha) was 10%, the plant injury at 62 g/ha ([9]; 62 g ai/ha) was 15% and the plant injury at 125 g/ha ([9]; 125 g ai/ha) was 20%. For the same compound, the plant injury at 250 g/ha ([9]; 250 g ai/ha) was 35%, the plant injury at 31 g/ha ([10]; 31 g ai/ha) was 15% and the plant injury at 62 g/ha ([10]; 62 g ai/ha) was 20%. For the same compound, the plant injury at 125 g/ha ([10]; 125 g ai/ha) was 25%, the plant injury at 250 g/ha ([10]; 250 g ai/ha) was 40% and the pest or weed control at 31 g/ha [11, 15] was 60%. For the same compound, the pest or weed control at 62 g/ha [11, 16] was 75%, the pest or weed control at 125 g/ha [11, 17] was 90% and the pest or weed control at 250 g/ha [11, 18] was 100%. For the same compound, the pest or weed control at 16 g/ha [11, 19] was 50%, the pest or weed control at 31 g/ha ([12]; 31 g ai/ha) was 20% and the pest or weed control at 62 g/ha ([12]; 62 g ai/ha) was 55%. The pest or weed control at 125 g/ha ([12]; 125 g ai/ha) was 100%, the pest or weed control at 250 g/ha ([12]; 250 g ai/ha) was 100% and the pest or weed control at 31 g/ha ([13]; 31 g ai/ha) was 100%. The pest or weed control at 62 g/ha ([13]; 62 g ai/ha) was 100%, the pest or weed control at 125 g/ha ([13]; 125 g ai/ha) was 100% and the pest or weed control at 250 g/ha ([13]; 250 g ai/ha) was 100%. The pest or weed control at 31 g/ha [14, 15] was 80%, the pest or weed control at 62 g/ha [14, 16] was 90% and the pest or weed control at 125 g/ha [14, 17] was 95%. The pest or weed control at 250 g/ha [14, 18] was 98% and the pest or weed control at 16 g/ha [14, 19] was 70%.
